In ChEMBL document CHEMBL4000199, “Synthesis and biological evaluation of novel hydroxybenzaldehyde-based kojic acid analogues as inhibitors of mushroom tyrosinase” (Bioorg Med Chem Lett, 2017) one finds inhibition and IC50 data, which are given here for 15 compounds.

Structures are written as SMILES. The source made the active and inactive calls. The calls are words filed in the database; no cut-off is given here.

The first test addresses T1, Tyrosinase (Agaricus bisporus) (UniProt O42713).
T1 sequence (whole entry): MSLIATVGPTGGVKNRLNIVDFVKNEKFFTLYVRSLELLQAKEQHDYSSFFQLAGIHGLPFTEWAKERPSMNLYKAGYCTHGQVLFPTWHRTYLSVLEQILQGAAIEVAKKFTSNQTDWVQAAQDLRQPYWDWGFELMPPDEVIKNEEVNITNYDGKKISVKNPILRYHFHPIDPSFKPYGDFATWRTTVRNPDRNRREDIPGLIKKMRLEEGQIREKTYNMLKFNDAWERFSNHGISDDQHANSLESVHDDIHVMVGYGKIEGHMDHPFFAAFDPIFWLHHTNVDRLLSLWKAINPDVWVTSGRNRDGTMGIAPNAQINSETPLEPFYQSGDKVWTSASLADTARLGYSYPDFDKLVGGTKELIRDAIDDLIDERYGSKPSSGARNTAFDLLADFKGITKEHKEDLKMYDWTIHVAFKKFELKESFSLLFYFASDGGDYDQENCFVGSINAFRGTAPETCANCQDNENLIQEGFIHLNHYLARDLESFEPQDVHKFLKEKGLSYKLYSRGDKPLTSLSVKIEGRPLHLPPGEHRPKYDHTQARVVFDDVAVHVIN
The test can be described thus: Competitive inhibition of mushroom tyrosinase up to 1.2 uM using varying levels of L-DOPA as substrate preincubated for 20 mins followed by substrate addition measured for 1 min by Lineweaver-Burk plot analysis.
For the compound `O=c1cc(CSc2nnc(-c3ccccc3)n2NCc2ccc(O)cc2O)occ1O`, the inhibition entry was “Active”.

Another test deals with Mushroom tyrosinase (Agaricus bisporus, UniProt O42713+Q00024+C7FF04+C7FF05). The test can be described thus: Inhibition of mushroom tyrosinase using L-tyrosine as substrate measured after 20 mins.
By IC50 is commonly meant the concentration at which inhibition is half-maximal. As for `O=c1cc(CSc2ccc(O)cc2)occ1O`, the IC50 was 0.54 µM.

Another test addresses T2, Tyrosinase (Agaricus bisporus, UniProt O42713).
T2 sequence (O42713 whole entry): T1 sequence (whole entry)
Put plainly: (§1) Inhibition of mushroom tyrosinase diphenolase activity assessed as reduction in dopachrome formation using L-DOPA as substrate preincubated for 20 mins followed by substrate addition measured for 1 min.
Take `COc1cc(/C=N/n2cnnc2SCc2cc(=O)c(O)co2)ccc1O`: the IC50 was found to be 17.5 µM. Same read-out and setting: the result for `O=c1cc(CSc2nncn2/N=C/c2ccc(O)cc2O)occ1O` reads 9.6 µM; that for `O=c1cc(CSc2nnc(-c3ccc(Cl)cc3)n2NCc2ccccc2O)occ1O`, 1.71 µM. On the same count and under the same terms, the result for `O=c1cc(CSc2nnc(-c3cccc(Cl)c3)n2NCc2ccccc2O)occ1O` reads 2.5 µM; that for `O=c1cc(CSc2nncn2NCc2ccccc2O)occ1O`, 5.85 µM. As to `Cc1nnc(SCc2cc(=O)c(O)co2)n1NCc1cccc(O)c1`, the IC50 turned out to be 12.5 µM.

Consider `CCc1nnc(SCc2cc(=O)c(O)co2)n1NCc1ccccc1O`, for which the IC50 came to 7.6 µM.

In the case of `Cc1nnc(SCc2cc(=O)c(O)co2)n1NCc1ccccc1O`, the IC50 was found to be 10.2 µM. Still for that read-out and setting: the result for `Cc1nnc(SCc2cc(=O)c(O)co2)n1NCc1ccc(O)cc1O` reads 5.8 µM; that for `O=c1cc(CSc2nncn2/N=C/c2ccc(O)cc2)occ1O`, 8.54 µM; that for `Cc1ccc(-c2nnc(SCc3cc(=O)c(O)co3)n2NCc2ccccc2O)cc1`, 3.8 µM. Turning to `O=c1cc(CSc2nnc(-c3ccccc3)n2NCc2ccc(O)cc2O)occ1O`, the IC50 was 1.35 µM. As to `O=c1cc(CSc2nnc(-c3ccccc3)n2NCc2ccccc2O)occ1O`, the IC50 amounted to 1.5 µM.

Consider `O=c1cc(CSc2nnc(-c3ccccc3Cl)n2/N=C/c2ccc(O)c(O)c2)occ1O`, for which the IC50 worked out at 5.2 µM.

The target of a further test is T1, Tyrosinase (Agaricus bisporus). The test is described as §1.
For `O=c1cc(CSc2nnc(-c3ccccc3)n2NCc2ccc(O)cc2O)occ1O`, the inhibition entry was “Dose-dependent effect”.
